Data set [1] relates to MRC-5. Kind of data set: Cytotoxic MTS assay, MRC-5 fibroblasts. The format is cell-based. As to conditions: MRC5, human fibroblasts, 72 h, median of five assays. The text has this: (§1) The cancer cell lines used in the cytotoxic assays were acquired from the American Tissue Culture Collection (ATCC) (Manassas, VA, USA) and maintained as described previously. The MRC-5 and BJ human fibroblasts were used as non-tumoral control cells. The (MRC-5 LD and BJ LD) are also human fibroblast cell lines resistant to doxorubicin. […] The Raji and Ramos cell lines correspond to B-cell leukemia. Other cells, such as U2OS, represent a child osteosarcoma, while HCT116 is a colorectal tumor cell line. (HCT116p53^−/−, Horizon Discovery Ltd., Cambridge, UK) is a similar cell line with its p53 gene knocked down, serving as a model of human cancer frequently associated with a poor prognosis. The cells were maintained in Nunc/corning 80 cm^2 plastic tissue culture flasks and cultured in a cell culture medium according to ATCC or Horizon recommendations (McCoy, DMEM/RPMI 1640 with 5 g/L glucose, 2 mM glutamine, 100 U/mL penicillin, […] streptomycin, 10% fetal calf serum, and NaHCO3). The compounds were freshly dissolved in DMSO. The final concentration of DMSO was 0.01% in the cell culture.
(§2) The in vitro cytotoxicity of compounds (1–7) was assessed using the standard 3-(4,5-dimethyl-thiazol-2yl)-5-(3-carboxymethoxyphenyl)-2-(sulfophenyl)-2H-tetrazolium (MTS). The assay was performed at the Institute of Molecular and Translational Medicine using a robotic platform (High-ResBiosolutions, Beverly, MA, USA). Cell suspensions were prepared and diluted according to the specific cell type and the expected target cell density (25,000–35,000 cells/mL, based on cell growth characteristics). An automatic pipettor (30 μL) was used to add cells into 384-well microtiter plates. All tested compounds were dissolved in 100% DMSO, and four-fold dilutions of the intended test concentrations were added in 0.15 μL aliquots at time zero to the microtiter plate wells by the echo acoustic non-contact liquid handler Echo550 (Labcyte, San Jose, CA, USA). The assays were accomplished in technical duplicates and at least three biological replicates. The cells were incubated with the tested compound for 72 h at 37 °C in a 5% CO2 atmosphere with 100% humidity. At the end of the incubation period, cells were assayed using the MTS test. Aliquots (5 μL) of the MTS stock solution were pipetted into each well and incubated for 1–4 h. After this incubation period, the optical density (OD) was measured at 490 nm using an Envision reader (PerkinElmer, Waltham, MA, USA). Tumor cell survival (TCS) was calculated using the following equation: TCS = (OD drug-exposed well/mean OD control wells) × 100%. The IC50 value, representing the concentration of the compound lethal to 50% of the tumor cells, was calculated from the corresponding dose-response curves using Dotmatics software (Updated version 2022, London, UK). After three days of incubation on the cancer cell lines and normal fibroblasts, the […] (IC50) were obtained. Five assays were performed for each cell line. The standard error of the assays was lower than 10%, as assessed by the triplicate assays.
On the technique in general: Tetrazolium assays rely on reduction of a dye to a coloured formazan, in cell work by metabolically active cells.

Data set [2] has as its system A549. Kind of data set: Cytotoxic MTS assay, A549 2D. It is filed as cell-based. As to conditions: A549, human tumors 2D, 72 h, median of five assays.
Description: as §1, §2

In data set [3] the test system is A549 spheroids. Kind of data set: Spheroid viability assay (CellTiter-Glo 3D), A549 spheroids. The format is cell-based. Particulars: A549, human tumors spheroids, 72 h, 100 pM to 50 μM. The procedure:
Spheroid culture aims to analyze the drug’s effect on complex structures resembling solid tumors. The spheroids were prepared using the specific nonadherent plates for spheroid formation (Nunc Sphera, Thermo Fisher, Waltham, MA, USA) according to the simple protocol outlined by the manufacturer. The cell lines HCT116 parental, HCT116KOTp53, A549, and U2OS were cultured at a density of 2500 cells per well using medium containing 10% fetal calf serum and antibiotics: McCoy’s 5A medium for HCT116, F-12K (Kaighn’s Modified) for A549, and Dulbecco’s Modified Eagle Medium (DMEM). The cells were grown in culture for 48 h as recommended by the manufacturer and as described by Das et al. and Muñoz-Garcia et al..
The cell viability of the treated spheroids was assessed using the kit CellTiter-Glo 3D (Promega Corporation, Madison, WI, USA). The kit is designed to measure ATP as an indicator of viability, generating a luminescent readout that is more sensitive than colorimetric or fluorescence-based methods. The spheroids were cultivated with compounds at concentrations ranging from 100 pM to 50 μM in triplicate for 72 h, and the luminescence was measured using the Enspire apparatus (PerkinElmer). A standard curve was performed for each analysis as recommended by the manufacturer.
(ATP-based viability assays read luminescence as a measure of living cells.)

For data set [4], the system named is caspase 3. Kind of data set: Caspase 3 activity in lysed HCT116 cells from 2D and spheroids. It is filed as cell-based, human. Particulars: 12 h; for Caspase 3 activity, 2D culture: HCT116 parental, 25 µM; for Caspase 3 activity, spheroid culture: HCT116 parental spheroids, 25 µM (cisplatin 15 μM). The procedure:
The assay was designed to evaluate the impact of various compounds on caspase activity using a standardized quantity of cell protein lysates after 12 h of incubation. The parental line HCT116 served as the basis for these experiments. Three distinct caspases were examined employing the fluorescence assay kits from Calbiochem (San Diego, CA, USA), specifically a fluorometric caspase-8 assay kit and a fluorimetric caspase-3 assay kit. Additionally, the fluorometric kit from Abcam was utilized to assess caspase-9 activity. Due to the variations in protocols for each caspase, separate plates were prepared for each assay, encompassing both two-dimensional (2D) cell cultures and spheroids. The compound concentrations were established at 25 µM, and assays were conducted in quintuplicate following a 12-h incubation period. The cells were harvested from the plates using the standard trypsin-EDTA solution (Merck Sigma Aldrich, Saint Louis, MO, USA), washed, and counted before lysis, as described in each kit. Cell processing adhered to the guidelines provided by the respective companies, and protein concentration was calculated and standardized using the standard BCA assay. Fluorescent readings were captured using the Enspire apparatus (Perkin-Elmer, MA, USA). Positive controls utilized included staurosporine at a concentration of 5 μM and cisplatin at 15 μM. The kits provided their own standards; however, to normalize all the readings between cultures, types, and treatments, the results were expressed as a percentage relative to the positive control, staurosporine, in 2D culture. […] A total of three separate assays were conducted for each caspase.

Data set [5] concerns leukemic cells. Briefly: Effect on the cell cycle. It is filed as cell-based, human. As to conditions: comparable concentrations to caracasine acid.
The subject of data set [6] is normal human leukocytes. Set-up: method as in PMID 31449809, PMID 35430982. Particulars: 0.1 nM to 50 μM in 0.01% DMSO; cited from earlier work.

Each structure is given as a SMILES string.

Usually IC50 stands for the concentration at which inhibition is half-maximal. Lower therefore signals greater potency in that assay. In the case of `C=C(C)C1CCC23CC(CCC2C1(C)CCC(=O)O)C(C)C3=O` (single isomer, unassigned; ent-3) [Compound 5, Ent-3,4-Seco-15-Oxo-Kaur-4(19)-en-3-Oic Acid], the IC50 in data set [1], in data set [2] and in data set [3] was above 50 µM in each case. The “Caspase 3 activity, 2D culture” value in data set [4] is “did not induce caspase activity”. Also, the “Effect on the cell cycle” value in data set [5] is recorded as “no effect”.
Consider `C=C(C)C1CCC23CC(CCC2C1(C)CCC(=O)OC(C)=O)C(C)C3=O` (single isomer, unassigned; ent-3) [Compound 6, Ent-3,4-Seco-15-Oxo-Kaur-4(19)-en-Acetic Anhydride], for which the 50% inhibitory concentration (IC50) in data set [1], in data set [2] and in data set [3] was above 50 µM each time. The “Caspase 3 activity, 2D culture” value in data set [4] is listed as “did not induce caspase activity”. Also, the “Effect on the cell cycle” value in data set [5] is “no effect”.
Turning to `C=C1C(=O)C23CCC(C(=C)C)C(C)(CCC(=O)OC)C2CCC1C3` (stereo not drawn) [Compound 2, Caracasine], the IC50 in data set [1] was 6.84 µM; in data set [2], 8.39 µM; in data set [3], above 50 µM. The “Caspase 3 activity, spheroid culture” value in data set [4] is “absence of caspase activity”. For the same compound, the “Caspase 3 activity, 2D culture” value in data set [4] was “significant changes”. Further, in data set [6], the “Effect on primary leukocytes” value is “no significant effect”.
With `C=C1C(=O)C23CCC(C(=C)C)C(C)(CCC(=O)OC(C)=O)C2CCC1C3` (stereo not drawn) [Compound 7, Caracasine-Acetic Anhydride], the IC50 was 6.45 µM in data set [1], 3.72 µM in data set [2] and above 50 µM in data set [3]. The “Caspase 3 activity, spheroid culture” value in data set [4] is “absence of caspase activity”. The “Caspase 3 activity, 2D culture” value in data set [4] is on record as “significant changes”.

The values are drawn from PMC12298629, “New Derivatives of Caracasine Acid with Anti-Leukemic Activity and Limited Effectiveness in Spheroid Cultures” (Pharmaceuticals, 2025).
